Molecular target: T1, Purified P450arom (aromatase) reconstituted with P450-reductase (CPR) (Homo sapiens, UniProt P11511)
T1 sequence (P11511 1-503): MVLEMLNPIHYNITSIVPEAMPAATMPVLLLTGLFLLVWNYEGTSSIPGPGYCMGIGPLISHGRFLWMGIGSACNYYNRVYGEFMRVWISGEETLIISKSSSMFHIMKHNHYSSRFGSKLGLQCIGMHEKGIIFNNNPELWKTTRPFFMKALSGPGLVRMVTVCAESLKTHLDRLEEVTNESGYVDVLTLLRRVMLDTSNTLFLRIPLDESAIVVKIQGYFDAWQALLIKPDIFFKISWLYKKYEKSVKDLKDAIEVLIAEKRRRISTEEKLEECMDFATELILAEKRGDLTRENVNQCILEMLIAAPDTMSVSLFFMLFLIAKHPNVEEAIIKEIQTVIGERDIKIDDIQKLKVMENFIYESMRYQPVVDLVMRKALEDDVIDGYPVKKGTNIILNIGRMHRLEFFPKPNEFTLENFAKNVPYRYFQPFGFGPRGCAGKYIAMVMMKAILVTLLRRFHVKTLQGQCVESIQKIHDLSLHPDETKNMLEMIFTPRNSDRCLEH
Test: Measurement of aromatase activity by 3H-water method
Assay type: biochemical
Details: substrate 0.24 μM [1β-3H, 4-14C] androstenedione, 37° C., 20 minutes

[1] = compound concentration 0.1 (μmol)
[2] = compound concentration 1 (μmol)
[3] = compound concentration 10 (μmol)

Compound	% Inhibition [1]	% Inhibition [2]	% Inhibition [3]
CC(=O)O[C@@H]1C[C@@H]2[C@H](CC[C@]3(C)C(=O)CC[C@@H]23)[C@@]2(C)C=CC(=O)C=C12 [HDDG-033]	48%	96%	100%
C[C@]12C=CC(=O)C=C1[C@H](OCC#Cc1ccccc1)C[C@@H]1[C@@H]2CC[C@]2(C)C(=O)CC[C@@H]12 [HDDG-027]	27%	66%	94%
COC1=C(O)C=C[C@@]2(C)C1=CC[C@@H]1[C@@H]2CC[C@]2(C)C(=O)CC[C@@H]12 [HDDG-011]	–	–	37%
CCCC#CCO[C@@H]1C[C@@H]2[C@H](CC[C@]3(C)C(=O)CC[C@@H]23)[C@@]2(C)C=CC(=O)C=C12 [HDDG-047]	42%	95%	99%
C[C@]12C=CC(O)=C(OCc3ccccc3)C1=CC[C@@H]1[C@@H]2CC[C@]2(C)C(=O)CC[C@@H]12 [HDDG-043]	18%	97%	90%
C[C@]12C=CC(=O)C=C1[C@H](OC(=O)Cc1ccccc1)C[C@@H]1[C@@H]2CC[C@]2(C)C(=O)CC[C@@H]12 [HDDG-031]	0%	51%	47%
CCC(=O)O[C@@H]1C[C@@H]2[C@H](CC[C@]3(C)C(=O)CC[C@@H]23)[C@@]2(C)C=CC(=O)C=C12 [HDDG-030]	3%	0%	29%
CCCCO[C@@H]1C[C@@H]2[C@H](CC[C@]3(C)C(=O)CC[C@@H]23)[C@@]2(C)C=CC(=O)C=C12 [HDDG-044, (6R,8S,9S,10R,13S,14S)-6-butoxy-10,13-dimethyl-7,8,9,10,11,12,13,14,15,16-decahydro-3H-cyclopenta[α]phenanthrene-3,17(6H)-dione]	73%	96%	86%
C[C@]12CCC(=O)C=C1[C@H](OCc1ccccc1)C[C@@H]1[C@@H]2CC[C@]2(C)C(=O)CC[C@@H]12 [HDDG-041]	34%	95%	87%
C[C@]12C=CC(=O)C=C1[C@H](OCC#CCO)C[C@@H]1[C@@H]2CC[C@]2(C)C(=O)CC[C@@H]12 [HDDG-065]	96%	84%	–
C[C@]12C=CC(=O)C=C1[C@H](OCC#Cc1ccc(Cl)c(Cl)c1)C[C@@H]1[C@@H]2CC[C@]2(C)C(=O)CC[C@@H]12 [HDDG-053, (6R,8R,9S,10R,13S,14S)-6-((3-(3,4-dichlorophenyl)prop-2-yn-1-yl)oxy)-10,13-dimethyl-7,8,9,10,11,12,13,14,15,16-decahydro-3H-cyclopenta[α]phenanthrene-3,17(6H)-dione]	95%	91%	–
C[C@]12C=CC(O)=C(OCC#Cc3ccccc3)C1=CC[C@@H]1[C@@H]2CC[C@]2(C)C(=O)CC[C@@H]12 [HDDG-038]	22%	97%	91%
CC(C)(C)O[C@@H]1C[C@@H]2[C@H](CC[C@]3(C)C(=O)CC[C@@H]23)[C@@]2(C)CCC(=O)C=C12 [HDDG-024]	16%	78%	76%
CCOC1=C(O)C=C[C@@]2(C)C1=CC[C@@H]1[C@@H]2CC[C@]2(C)C(=O)CC[C@@H]12 [HDDG-007]	–	12%	0%
CC/C=C\CO[C@@H]1C[C@@H]2[C@H](CC[C@]3(C)C(=O)CC[C@@H]23)[C@@]2(C)C=CC(=O)C=C12 [HDDG-062, (6R,8R,9S,10R,13S,14S)-10,13-dimethyl-6-((Z)-pent-2-en-1-yloxy)-7,8,9,10,11,12,13,14,15,16-decahydro-3H-cyclopenta[α]phenanthrene-3,17(6H)-dione]	97%	96%	–
CCC#CCO[C@@H]1C[C@@H]2[C@H](CC[C@]3(C)C(=O)CC[C@@H]23)[C@@]2(C)C=CC(=O)C=C12 [HDDG-046, (6R,8S,9S,10R,13S,14S)-10,13-dimethyl-6-(pent-2-yn-1-yloxy)-7,8,9,10,11,12,13,14,15,16-decahydro-3H-cyclopenta[α]phenanthrene-3,17(6H)-dione]	89%	96%	99%
CC/C=C/CO[C@@H]1C[C@@H]2[C@H](CC[C@]3(C)C(=O)CC[C@@H]23)[C@@]2(C)C=CC(=O)C=C12 [HDDG-061, (6R,8R,9S,10R,13S,14S)-10,13-dimethyl-6-((E)-pent-2-en-1-yloxy)-7,8,9,10,11,12,13,14,15,16-decahydro-3H-cyclopenta[α]phenanthrene-3,17(6H)-dione]	96%	93%	–
C[C@]12C=CC(=O)C=C1[C@@H](Br)C[C@@H]1[C@@H]2CC[C@]2(C)C(=O)CC[C@@H]12 [HDDG-040]	54%	94%	98%
CCCCC#CCO[C@@H]1C[C@@H]2[C@H](CC[C@]3(C)C(=O)CC[C@@H]23)[C@@]2(C)C=CC(=O)C=C12 [HDDG-048]	48%	87%	97%
C#CCOC1=C(O)C=C[C@@]2(C)C1=CC[C@@H]1[C@@H]2CC[C@]2(C)C(=O)CC[C@@H]12 [HDDG-032]	32%	98%	93%
CCOC1=C(O)CC[C@@]2(C)C1=CC[C@@H]1[C@@H]2CC[C@]2(C)C(=O)CC[C@@H]12 [HDDG-034]	14%	96%	88%
CCO[C@@H]1C[C@@H]2[C@H](CC[C@]3(C)C(=O)CC[C@@H]23)[C@@]2(C)C=CC(=O)C=C12 [HDDG-025]	–	19%	39%
COC1=C(O)CC[C@@]2(C)C1=CC[C@@H]1[C@@H]2CC[C@]2(C)C(=O)CC[C@@H]12 [HDDG-020]	21%	72%	61%
CC(=O)OC1=C(O)C=C[C@@]2(C)C1=CC[C@@H]1[C@@H]2CC[C@]2(C)C(=O)CC[C@@H]12 [HDDG-039]	33%	98%	88%
CCCCO[C@@H]1C[C@@H]2[C@H](CC[C@]3(C)C(=O)CC[C@@H]23)[C@@]2(C)CCC(=O)C=C12 [HDDG-052]	47%	95%	87%
CO[C@@H]1C[C@@H]2[C@H](CC[C@]3(C)C(=O)CC[C@@H]23)[C@@]2(C)CCC(=O)C=C12 [HDDG-021]	0%	70%	63%
CCCCCO[C@@H]1C[C@@H]2[C@H](CC[C@]3(C)C(=O)CC[C@@H]23)[C@@]2(C)C=CC(=O)C=C12 [HDDG-063, (6R,8R,9S,10R,13S,14S)-10,13-dimethyl-6-(pentyloxy)-7,8,9,10,11,12,13,14,15,16-decahydro-3H-cyclopenta[α]phenanthrene-3,17(6H)-dione]	96%	97%	–
C#CCO[C@@H]1C[C@@H]2[C@H](CC[C@]3(C)C(=O)CC[C@@H]23)[C@@]2(C)C=CC(=O)C=C12 [HDDG-026]	10%	35%	80%
CC(C)(C)O[C@@H]1C[C@@H]2[C@H](CC[C@]3(C)C(=O)CC[C@@H]23)[C@@]2(C)C=CC(=O)C=C12 [HDDG-015]	–	–	54%

Source: US8969327B2, “Substituted androst-4-ene diones” (priority 2010, dated 2015)
